According to ChEMBL document CHEMBL5143596, “The Design and Optimization of Monomeric Multitarget Peptides for the Treatment of Multifactorial Diseases” (J Med Chem, 2022):

Key:
[1] = Metabolic stability in rat plasma assessed as half life; type: ADME, cell-free
[2] = target: Mu-type opioid receptor (Homo sapiens, UniProt P35372); assay: Binding affinity at MOR (unknown origin) assessed as inhibition constant
Chain of Mu-type opioid receptor (P35372 whole entry): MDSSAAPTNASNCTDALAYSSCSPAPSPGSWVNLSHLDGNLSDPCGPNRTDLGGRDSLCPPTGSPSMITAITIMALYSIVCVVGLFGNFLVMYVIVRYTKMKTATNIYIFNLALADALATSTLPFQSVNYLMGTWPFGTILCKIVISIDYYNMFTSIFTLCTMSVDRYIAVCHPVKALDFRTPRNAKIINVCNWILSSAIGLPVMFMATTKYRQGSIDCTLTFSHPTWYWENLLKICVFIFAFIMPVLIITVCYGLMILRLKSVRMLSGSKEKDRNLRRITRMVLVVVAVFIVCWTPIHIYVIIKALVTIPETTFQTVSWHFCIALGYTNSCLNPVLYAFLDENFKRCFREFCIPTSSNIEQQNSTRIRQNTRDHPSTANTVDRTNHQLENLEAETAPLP

## Cc1cc(O)cc(C)c1C[C@H](N)C(=O)N[C@H](C)C(=O)NCC(=O)N(C)[C@@H](Cc1ccccc1)C(=O)N1CCC[C@H]1C(=O)N[C@@H](CC(C)C)C(=O)N[C@@H](Cc1c[nH]c2ccccc12)C(=O)NCc1cc(C(F)(F)F)cc(C(F)(F)F)c1
[1]
  half-life: > 24 h
[2]
  Ki: 1 nM
